Laboratory results taken from article PMC6408276 (ACS infectious diseases, 2019).
“And” between values parts separate entries of the source, which are not always exact repeats. Equal values may be shown once.

Columns and labels:
[1] = tested on: Colombiana strain of Trypanosoma cruzi; test: Assessment of therapeutic failure after cyclophosphamide immunosuppression; type: in vivo; details: for Blood parasite load determined by qPCR: n=5, after cyclophosphamide; for Blood parasite load determined by qPCR / % Negative blood qPCR: VFV in 10 % DMSO plus 5 % Gum Arabic; for % Blood parasite clearence (negative qPCR): n=10, after cyclophosphamide immunosuppression, VFV in DGAT; for % Negative blood qPCR: surviving mice n=5, after cyclophosphamide
[2] = tested on: Colombiana strain of Trypanosoma cruzi; test: Mouse model of T. cruzi infection: parasitemia, survival and natural relapse; type: in vivo
[3] = PK studies in mice after single oral administration; type: in vivo; details: for Life time (time until compound becomes undetectable, below 0.1 μM): mice plasma; for Life time (time until compound becomes undetectable, below 0.1 μM) / Bioavailability when Tween 80 was added to the vehicle (DGAT vs HPCD): single oral 25 mg/kg; for Bioavailability when Tween 80 was added to the vehicle (DGAT vs HPCD): mice; for Tmax: mouse, po, 25 mg/kg
[4] = tested on: NIH/3T3; details: cited from earlier work
[5] = cited from earlier work
[6] = tested on: CYP3A4; details: read-out: CYP3A4 IC50; cited from earlier work
[7] = cited from earlier work; remark: listed apart in the source
[8] = cited from earlier work; remark: listed apart in the source
[9] = Swiss male mice n=5, 60 days po, VNI and VFV in 10 % DMSO plus 5 % Gum Arabic
[10] = Swiss male mice n=10, 60 days po, VFV in DGAT

Structure (SMILES) | Blood parasite load determined by qPCR [1] | % Blood parasite clearence (negative qPCR) [1] | % Negative blood qPCR [1] | % Animal survival [2, 9] | Natural relapse after the therapy [2, 9] | % Animal survival [2, 10] | Natural relapse after the therapy [2, 10] | Sustained negative parasitemia after cyclophosphamide (light microscopy) ([1]; n=5, 10 % DMSO plus 5 % Gum Arabic vehicle) | Life time (time until compound becomes undetectable, below 0.1 μM) ([3]; DGAT formulation) | Life time (time until compound becomes undetectable, below 0.1 μM) ([3]; HPCD formulation) | Bioavailability when Tween 80 was added to the vehicle (DGAT vs HPCD) [3] | Tmax ([3]; plasma) | % Parasitemia suppression [2, 9] | Tmax ([3]; in vivo) | EC25 (cellular toxicity) [4] | Hepatic clearance [5] | % Parasitemia suppression [2, 10] | IC50 [6] | NOAEL (in vivo toxicity) [7] | Maximal concentration in mice plasma [8]
O=C(Cn1ccnc1[N+](=O)[O-])NCc1ccccc1 [Bz, benznidazole, reference compound] | 13038 ± 13612 | 30% | 0% | 100% | all animals and 5 out of 5 mice | 100% | 6 mice and 6 out of 10 mice | – | – | – | – | – | – | – | – | – | – | – | – | –
O=C(N[C@@H](Cn1ccnc1)c1ccc(Cl)cc1Cl)c1ccc(-c2nnc(-c3ccccc3)o2)cc1 [VNI, (R)-N-(1-(2,4-dichlorophenyl)-2-(1H-imidazol-1-yl)ethyl)-4-(5-phenyl-1,3,4-oxadi-azol-2 yl)benzamide] | 372 ± 528 | – | 20% | 100% | 3 out of five and 3 out of 5 mice | – | – | 20% | 16 h | 10 h | three-fold higher bioavailability | 2 h | 99.9% | – | – | – | – | – | – | –
O=C(N[C@@H](Cn1ccnc1)c1ccc(-c2ccc(F)cc2)cc1F)c1ccc(-c2nnc(-c3ccccc3)o2)cc1 [VFV, (R)-N-(1-(3,4′-difluorobiphenyl-4-yl)-2-(1H-imidazol-1-yl)ethyl)-4-(5-phenyl-1,3,4oxadiazol-2-yl)benzamide] | 905 ± 854 | 0% | 0% | 100% | all animals and 5 out of 5 mice | 100% | 5 mice and 5 out of 10 mice | – | – | <24 h | three-fold higher bioavailability | – | – | 4 h | > 50 µM | moderate hepatic clearance | 99.8% | 3.6 µM | > 200 mg/kg | –
